This assay relates to oxazolone-induced atopic dermatitis in mice. In words: Oxazolone-induced atopic dermatitis in mice, samples applied to the ear, ear thickness (H&E histology). The format is in vivo, mouse. To be noted: positive control group (Dexa), concentration not given; FIG. 2. The method, then:
In a mouse, oxazolone was administered thereto to induce an oxazolone-induced atopic dermatitis. Then, the effect of the extract of the selected cultivar on atopic dermatitis was examined.
In detail, mice (male, 20 g, 8-week-old, Central Lab. Animal Inc.) was divided into a group of 6, and each group was named as a control group, a induction group (Vehicle), a positive control group (Dexa), a soybean SCEL-1 0.1% (w/v)-treated group, a soybean SCEL-1 0.3% (w/v)-treated group, a SCEL-1 1.0% (w/v)-treated group, and a general black soybean (available from Nonghyup of Gangneungkyo-1-dong) 1.0% (w/v)-treated group. Each sample was prepared in the same manner as in Section (1).
To induce atopic dermatitis in mice, 40 μl of 1% oxazolone per ear was applied once a day. After one week and starting from the eighth day, 40 μl of 1% oxazolone per ear was applied on alternate days for three weeks. In addition, starting from the eighth day, in addition to the oxazolone application, samples were also applied twice a day. Immediately after the experiment, a tissue of the ear was immobilized in 10% paraformaldehyde for 24 hours or more, and then, immersed in paraffin to form a block. The block was then fixed, and cut to a thickness of 10 μm by using a microtome that enables cutting to a constant thickness. […]

Results on one compound are retold here after patent US11426421B2, “Composition for preventing or improving inflammation including extract of seed of new soybean cultivar SCEL-1” (KOREA INSTITUTE OF SCIENCE AND TECHNOLOGY, priority 2018, dated 2022).

Regarding `C[C@@H]1C[C@H]2[C@@H]3CCC4=CC(=O)C=C[C@]4(C)[C@@]3(F)[C@@H](O)C[C@]2(C)[C@@]1(O)C(=O)CO` [dexamethanosone], the “ear thickness of the mouse having oxazolone-induced atopic dermatitis” value is recorded as “reduced to a thickness near the normal level”.
